Assay results: patent publication US7238682B1, “Methods and compositions for degradation and/or inhibition of HER-family tyrosine kinases” (Sloan-Kettering Institute for Cancer Research, priority 1999, dated 2007)
Read-outs that look alike come from different tables or passages of the source.

Experiments:
Format in all cases: cell-based, human
MCF-7 cells = assay: MCF-7 cell growth inhibition (cell counting); conditions: MCF-7 cells treated for four days, average of three experiments, read-out: IC50 (growth inh.)
Experimental: (§1) The human breast cancer cell lines MCF-7 and SKBR-3 were obtained from ATCC (Rockville, Md.), and maintained in DME/F12 (1:1) supplemented with 10% heat-inactivated fetal bovine serum (Gemini Bioproducts), 2 mM glutamine, and 50 units/ml each of penicillin and streptomycin, in a humidified 5% CO2/air atmosphere at 37° C.
For cell growth experiments, cells were placed in 6-well tissue-culture plates (Corning) at 20,000 cells/well. Two days after plating, cells were treated with different concentrations of drugs or the vehicle DMSO (0.1%). MCF-7 cells were treated for four days; medium with the appropriate drug or vehicle was changed every 2 days; cells were trypsinized, collected and counted on a Coulter counter; IC50 for cell growth is designated as the amount of each drug needed to inhibit MCF-7 growth by 50% compared to the control vehicle.

Raf-1 = assay: Induction of Raf-1 degradation in MCF-7 cells (immunoblotting); conditions: for IC50: MCF-7 cells, 24-hr treatment, amount of drug needed to degrade 50% of the protein, average of three experiments
Experimental: as §1
(§2) Polyclonal antibodies against HER2 (c-18), Raf-1 (c-12), and P13 kinase (p85) (Z-8) were purchased from Santa Cruz Biotechnology, Inc. A monoclonal antibody against estrogen receptor (clone H-151) was obtained from StressGen Biotechnology Corp. A polyclonal antibody against the β-subunit of IGF-I receptor was kindly provided by Dr. L-H, Wang (Mt. Sinai Medical Center, New York).
(§3) After exposure, cells were washed twice with ice-cold phosphate-buffered saline (PBS), collected by scraping and transferred into microcentrifuge tubes. For immunoblotting (HER2, Raf-1, ER), cells were lysed with SDS lysis buffer (50 mM Tris-HCl, pH 7.5, 2% SDS, 10% glycerol, and 1 mM DTT), boiled for 10 min, and sonicated briefly; for immunoprecipitation (IGF-IR), cells were lysed with NP40 lysis buffer (50 mM Tris-HCl, pH 7.5, 1% Nonidet P-40, 150 mM NaCl, 1 mM Na3VO4, 40 mM NaF, 1 mM phenylmethylsulfonyl fluoride (PMSF) and 10 μg/ml each of aprotinin, leupeptin and soybean trypsin inhibitor) for 20 min at 4° C. Cell lysates were cleared by centrifuging at 14,000×g for 15 min at 4° C. in a microcentrifuge; the supernatants were collected as the experimental samples. Protein concentration in each sample was determined using the BCA kit (Pierce) according to the manufacture's instructions. For detecting IGF-IR, samples were immunoprecipitated with anti-IGF-IR antibody. Immunocomplexes were collected on protein A-Sepharose beads (Pharmacia), washed three times with the lysis buffer. Samples were subjected to SDS-PAGE, electrotransferred to nitrocellulose membranes, detected using the ECL kit (Amersham) according to the manufacturer's protocol, and quantitated using the Gel Doc 1000 (Bio-Rad).

HER2 = assay: Induction of HER2 degradation in MCF-7 cells (immunoblotting); conditions: for IC50: MCF-7 cells, 24-hr treatment, amount of drug needed to degrade 50% of the protein, average of three experiments, read-out: IC50 (HER-2)
Experimental: as §1, §2, §3

SMILES | IC50 (MCF-7 cells; Homo sapiens, MCF7, 96 h) | IC50 (Raf-1) | IC50 (HER2) | IC50 (MCF-7 cells) | Activity against Raf-1 (in words) (Raf-1; degradation in MCF-7 cells) | Activity against HER2 (in words) (HER2; degradation in MCF-7 cells) | Selectivity / specificity for HER-2 over Raf-1 (HER2; degradation in MCF-7 cells, compared to GM)
COC1C=CC=C(C)C(=O)NC2=CC(=O)C(NCCCCCCCCCNC3=C4CC(C)CC(OC)C(O)C(C)C=C(C)C(OC(N)=O)CC(OC)C=CC=C(C)C(=O)NC(=CC3=O)C4=O)=C(CC(C)CC(OC)C(O)C(C)C=C(C)C(OC(N)=O)C1)C2=O (stereo not drawn) [9 O———O] | 700 nM | 3800 nM | 500 nM |  |  |  | 
COC1C=CC=C(C)C(=O)NC2=CC(=O)C(NCCCCCCCCCCCCNC3=C4CC(C)CC(OC)C(O)C(C)C=C(C)C(OC(N)=O)CC(OC)C=CC=C(C)C(=O)NC(=CC3=O)C4=O)=C(CC(C)CC(OC)C(O)C(C)C=C(C)C(OC(N)=O)C1)C2=O (stereo not drawn) [12 O———O] | 700 nM | 3500 nM | 750 nM |  |  |  | 
COC1C=CC=C(C)C(=O)NC2=CC(=O)C(NCCCCN)=C(CC(C)CC(OC)C(O)C(C)C=C(C)C1OC(N)=O)C2=O (stereo not drawn) [ButylaminoGM] |  | 350 nM | 80 nM | 600 nM | modestly weaker than GM | modestly weaker than GM | not selective
COC1=C2C[C@@H](C)C[C@H](OC)[C@H](O)[C@@H](C)/C=C(\C)[C@H](OC(N)=O)[C@@H](OC)/C=C\C=C(/C)C(=O)NC(=CC1=O)C2=O [GM, Geldanamycin, reference compound] | 25 nM | 200 nM | 45 nM |  |  |  | 
COC1C=CC=C(C)C(=O)NC2=CC(=O)C(NCCCCCCCNC3=C4CC(C)CC(OC)C(O)C(C)C=C(C)C(OC(N)=O)CC(OC)C=CC=C(C)C(=O)NC(=CC3=O)C4=O)=C(CC(C)CC(OC)C(O)C(C)C=C(C)C(OC(N)=O)C1)C2=O (stereo not drawn) [GMD-7c] | 600 nM | 500 nM | 70 nM |  |  |  | 
